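Results reflect a 48-hour exposure of cells in 96-well plates to compound at five concentrations. GI50 is the concentration that inhibits growth by half.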 Active and inactive are the calls of the source. Rule as the data show it: active = GI50 up to about 1.1 µM and inactive = higher.

Some test systems named below: COLO 205; T47D; SNB-19; NCI-H226; SF-268; CCRF-CEM; DU-145; UACC-62; OVCAR-5; SW-620; SK-MEL-5; Hs-578T; OVCAR-3; TK-10; SN12C; OVCAR-8; SNB-75; SK-OV-3; NCI/ADR-RES; EKVX.
What all share (assay): NCI tumour cell line growth inhibition, 48 h

Consider `CSc1nc(O)c(C#N)c(-c2ccc(Cl)cc2)n1`, for which the GI50 was > 100 µM (inactive) in the test on COLO 205; 43.7 µM (inactive) in the test with T47D; 77.4 µM (inactive) with SNB-19; > 100 µM (inactive) in the test on NCI-H226; > 100 µM (inactive) in the test with SF-268; 61 µM (inactive) in the test on CCRF-CEM. The GI50 is > 100 µM (inactive) in the test with DU-145; 73.6 µM (inactive) with UACC-62; > 100 µM (inactive) in the test with OVCAR-5; > 100 µM (inactive) in the test with SW-620; > 100 µM (inactive) with SK-MEL-5; 64.9 µM (inactive) in the test on Hs-578T. Moreover, the GI50 in the test on OVCAR-3 was > 100 µM (inactive); with TK-10, > 100 µM (inactive); with SN12C, > 100 µM (inactive); with OVCAR-8 it was > 100 µM (inactive); in the test on SNB-75, 93.8 µM (inactive); with SK-OV-3, > 100 µM (inactive). Moreover, the GI50 in the test with NCI/ADR-RES and in the test with EKVX was > 100 µM (inactive) in each case.

Consider `O=C(NCCc1n[nH]c2c1C(=O)C=C(Nc1ccccc1)C2=O)OCc1ccccc1`, for which the GI50 is > 100 µM (inactive) in the test on COLO 205; 53.8 µM (inactive) in the test with T47D; > 100 µM (inactive) in the test with SNB-19; > 100 µM (inactive) with NCI-H226; > 100 µM (inactive) with SF-268; > 100 µM (inactive) in the test on CCRF-CEM. Further, the GI50 with DU-145 was > 100 µM (inactive); in the test with UACC-62, 8.09 µM (inactive); in the test with OVCAR-5 it was > 100 µM (inactive); with SW-620, > 100 µM (inactive); in the test with SK-MEL-5, > 100 µM (inactive); with Hs-578T, > 100 µM (inactive). Also, the GI50 in the test on OVCAR-3, with TK-10, with SN12C, with OVCAR-8, with SNB-75 and with SK-OV-3 was > 100 µM (inactive) throughout. The GI50 in the test on NCI/ADR-RES and with EKVX was > 100 µM (inactive) in each case.

Turning to `CN(C(=O)Nc1ccc(Cl)c(Cl)c1)C1CCCC[C@@H]1N1CCCC1` (stereo not given in full), the GI50 with COLO 205 was 18.1 µM (inactive); with T47D, 39.6 µM (inactive); in the test with SNB-19, 66.7 µM (inactive); in the test on NCI-H226 it was 0.092 µM (active); in the test with SF-268 it was 31.6 µM (inactive); in the test with CCRF-CEM, 30.5 µM (inactive). In addition, the GI50 in the test on DU-145 was 58.6 µM (inactive); in the test on UACC-62, 22.9 µM (inactive); in the test on OVCAR-5 it was 32.4 µM (inactive); in the test on SW-620, 63.7 µM (inactive); in the test on SK-MEL-5, 16.3 µM (inactive); with Hs-578T, 33.7 µM (inactive). Moreover, the GI50 in the test with OVCAR-3 is 76.6 µM (inactive); in the test on TK-10, 33.3 µM (inactive); in the test with SN12C, > 100 µM (inactive); with OVCAR-8, 79.3 µM (inactive); in the test on SNB-75, 40.2 µM (inactive); with SK-OV-3, > 100 µM (inactive). Also, the GI50 with NCI/ADR-RES is 72.4 µM (inactive); in the test with EKVX it was 47.5 µM (inactive).

Take `c1ccc([P+](CCN2Cc3ccccc3C2)(c2ccccc2)c2ccccc2)cc1`: the GI50 with COLO 205 was 1.56 µM (inactive); in the test on T47D, 2.4 µM (inactive); in the test with SNB-19, 6.7 µM (inactive); in the test on NCI-H226, 3.84 µM (inactive); with SF-268, 5.77 µM (inactive); in the test on CCRF-CEM it was 2.64 µM (inactive). Moreover, the GI50 was 5.87 µM (inactive) in the test with DU-145; 2.85 µM (inactive) with UACC-62; 16.6 µM (inactive) in the test with OVCAR-5; 4.22 µM (inactive) in the test with SW-620; 2.04 µM (inactive) in the test with SK-MEL-5; 12.5 µM (inactive) in the test on Hs-578T. The GI50 was 3.13 µM (inactive) in the test on OVCAR-3; 10.4 µM (inactive) in the test with TK-10; 4.56 µM (inactive) with SN12C; 2.32 µM (inactive) in the test on OVCAR-8; 2.12 µM (inactive) with SNB-75; 20.7 µM (inactive) in the test with SK-OV-3. The GI50 in the test on NCI/ADR-RES was 69.5 µM (inactive); in the test with EKVX, 3.84 µM (inactive).

Turning to `O=C1C=C2C(=NC34CCCCC3C(c3ccccc3)C3=C(c5ccccc5CC3)N24)c2ccccc21` (stereo not given), the GI50 in the test with COLO 205, in the test with T47D, in the test with SNB-19, in the test with NCI-H226, in the test on SF-268 and with CCRF-CEM was > 10 µM (inactive) throughout. The GI50 in the test with DU-145, in the test with UACC-62, in the test with OVCAR-5, in the test with SW-620, in the test on SK-MEL-5 and in the test on Hs-578T was > 10 µM (inactive) each time. The GI50 in the test with OVCAR-3 was > 10 µM (inactive); in the test on TK-10 it was > 10 µM (inactive); with SN12C it was > 10 µM (inactive); with OVCAR-8, > 10 µM (inactive); with SNB-75, 8.95 µM (inactive); in the test on SK-OV-3, > 10 µM (inactive). In addition, the GI50 with NCI/ADR-RES and in the test with EKVX was > 10 µM (inactive) throughout.

On to `CSc1nc(SC)c2c(C)cn(C3OC(C)C(O)C(O)C3O)c2n1` (stereo not given), for which the GI50 in the test on COLO 205 is 86.7 µM (inactive); with T47D it was 34.1 µM (inactive); with SNB-19, 57 µM (inactive); in the test on NCI-H226, 66.7 µM (inactive); in the test on SF-268, 95.7 µM (inactive); in the test on CCRF-CEM, 45.7 µM (inactive). In addition, the GI50 in the test with DU-145 was 62.5 µM (inactive); in the test with UACC-62, 76.6 µM (inactive); in the test with OVCAR-5 it was > 100 µM (inactive); with SW-620, > 100 µM (inactive); in the test on SK-MEL-5, 63.4 µM (inactive); with Hs-578T, 45.6 µM (inactive). Besides, the GI50 with OVCAR-3 was 48.8 µM (inactive); in the test with TK-10 it was 62.2 µM (inactive); in the test with SN12C it was > 100 µM (inactive); in the test with OVCAR-8 it was 74.6 µM (inactive); in the test with SNB-75, 52.6 µM (inactive); in the test with SK-OV-3 it was > 100 µM (inactive). Besides, the results for the GI50 with NCI/ADR-RES and in the test on EKVX were 67.3 µM (inactive) and > 100 µM (inactive), respectively.

On to `COC(=O)C1=C(C(=O)OC)N(c2ccncc2)C(c2ccco2)=CC1c1ccccc1[N+](=O)[O-]` (stereo not given), for which the GI50 in the test with COLO 205 was 4.75 µM (inactive); with T47D, 3.78 µM (inactive); in the test with SNB-19 it was 7.18 µM (inactive); in the test with NCI-H226, 4.99 µM (inactive); with SF-268 it was 4.72 µM (inactive); with CCRF-CEM it was 2.21 µM (inactive). The GI50 was 5.24 µM (inactive) with DU-145; 9.91 µM (inactive) in the test on UACC-62; 14.6 µM (inactive) with OVCAR-5; 6.9 µM (inactive) in the test with SW-620; 2.39 µM (inactive) with SK-MEL-5; 5.94 µM (inactive) in the test on Hs-578T. Moreover, the GI50 with OVCAR-3 was 5.27 µM (inactive); with TK-10 it was 2.75 µM (inactive); in the test on SN12C it was 4.71 µM (inactive); in the test on OVCAR-8, 8.04 µM (inactive); in the test with SNB-75 it was 5.64 µM (inactive); with SK-OV-3, 16.8 µM (inactive). Besides, the GI50 is 12.1 µM (inactive) in the test on NCI/ADR-RES and 6.59 µM (inactive) in the test on EKVX.

These data come from ChEMBL document CHEMBL1201862, “PubChem BioAssay data set” (2004).
